Here are results for 20 molecules from ChEMBL document CHEMBL1201862, “PubChem BioAssay data set” (2004).

Assay [1] addresses T1, Heat shock factor protein 1 (Mus musculus, UniProt P38532).
T1 sequence (P38532 whole entry): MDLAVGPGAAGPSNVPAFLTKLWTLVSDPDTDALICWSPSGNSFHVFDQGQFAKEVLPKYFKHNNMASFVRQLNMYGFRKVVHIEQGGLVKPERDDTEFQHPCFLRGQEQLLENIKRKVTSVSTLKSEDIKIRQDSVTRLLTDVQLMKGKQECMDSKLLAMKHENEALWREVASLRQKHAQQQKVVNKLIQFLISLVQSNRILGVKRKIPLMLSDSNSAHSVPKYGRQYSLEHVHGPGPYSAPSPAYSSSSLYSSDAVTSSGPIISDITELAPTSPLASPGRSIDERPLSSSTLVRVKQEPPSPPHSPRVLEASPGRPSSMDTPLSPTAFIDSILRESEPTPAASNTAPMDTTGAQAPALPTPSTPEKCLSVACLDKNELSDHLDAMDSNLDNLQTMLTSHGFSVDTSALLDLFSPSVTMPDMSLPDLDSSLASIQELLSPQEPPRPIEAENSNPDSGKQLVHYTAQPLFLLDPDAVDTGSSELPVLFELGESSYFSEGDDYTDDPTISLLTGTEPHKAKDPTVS
In words: inhibition of MG132-induced HSE-luciferase signal, confirmation, cell-based, NIH3T3, luminescence, dose retest (AID 2382).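 Note: NIH3T3 fibroblasts with HSF1-driven luciferase reporter stressed by proteasome inhibitor MG132; luminescence from HSF1-driven luciferase expression after 8 hours of MG132 stress.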 The class given is functional.

In assay [2] the target is Luciferin 4-monooxygenase (Photinus pyralis, UniProt P08659). Kind of assay: firefly luciferase enzyme inhibitors, dose response, biochemical, luminescence (AID 1891).
Assay [3] is described as follows: Luminescence Cell-Based Dose Confirmation HTS to Identify Inhibitors of Platelet Dense Granule Release. [Related pubchem assays: 1663 (Primary HTS), 1678 (Summary of Project)]. The class given is functional.
For assay [4], the target named is T2, Calpain-2 catalytic subunit (Sus scrofa, UniProt P43367).
T2 sequence (P43367 whole entry): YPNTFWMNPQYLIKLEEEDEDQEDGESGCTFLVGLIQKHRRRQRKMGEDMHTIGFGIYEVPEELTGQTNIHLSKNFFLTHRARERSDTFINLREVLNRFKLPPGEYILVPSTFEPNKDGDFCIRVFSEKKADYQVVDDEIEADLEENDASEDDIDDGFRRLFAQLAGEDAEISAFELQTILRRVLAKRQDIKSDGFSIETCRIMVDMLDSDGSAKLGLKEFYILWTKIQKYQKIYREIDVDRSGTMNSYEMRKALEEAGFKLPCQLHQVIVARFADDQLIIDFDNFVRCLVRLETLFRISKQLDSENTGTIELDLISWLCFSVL
Kind of assay: pig calpain II inhibitor potency, dose response, biochemical, fluorogenic peptide substrate (AID 1420). The class given is functional.

A short description of assay [5]: Luminescence Cell-Based Dose Retest to Confirm Inhibitors of Cancer Stem Cells. [Related pubchem assays (depositor defined):AID2717, AID2721]. The class given is functional. The conditions noted are these: Homo sapiens.
In assay [6] the test system is Streptococcus sp. 'group A'. In words: growth inhibition of control SK(-) GAS strain, dose response, counter-screen for streptokinase expression inhibitor project, luminescence, kanamycin, BacTiterGlo, confirmation (AID 1900). The class given is functional, organism-based. Background: The purpose of a counterscreen is to sort out artefacts and off-target activity.

Another assay concerns the target T3, Streptokinase A (Streptococcus pyogenes serotype M1, UniProt P10520).
T3 sequence (P10520 whole entry): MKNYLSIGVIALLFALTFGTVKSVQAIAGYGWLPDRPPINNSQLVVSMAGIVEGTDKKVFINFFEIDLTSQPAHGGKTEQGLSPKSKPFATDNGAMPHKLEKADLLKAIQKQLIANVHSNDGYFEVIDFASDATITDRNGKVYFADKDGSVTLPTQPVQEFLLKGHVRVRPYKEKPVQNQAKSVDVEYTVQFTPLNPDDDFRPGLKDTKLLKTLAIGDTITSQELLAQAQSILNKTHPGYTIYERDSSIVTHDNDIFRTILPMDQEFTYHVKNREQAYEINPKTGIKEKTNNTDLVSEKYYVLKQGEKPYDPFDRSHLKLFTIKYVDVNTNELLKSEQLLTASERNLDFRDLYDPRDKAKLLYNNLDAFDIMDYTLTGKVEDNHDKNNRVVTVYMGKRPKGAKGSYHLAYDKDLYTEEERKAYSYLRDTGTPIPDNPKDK
Kind of assay: S. pyogenes streptokinase expression inhibitors, potency, dose response, plasminogen activation absorbance, OD405 (AID 1914).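 Note: secreted streptokinase activity via plasminogen activation per viability signal from cell pellet.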 Format: functional, Streptococcus pyogenes M1 GAS.

For the next assay, the system named is Streptococcus. In words: Group A Streptococcus viability loss, dose response, counter-screen for streptokinase expression inhibitor project, luminescence, BacTiterGlo (AID 1915).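 Note: potency for reduction of bacterial viability or growth.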 The class given is functional, organism-based.
The next assay has as its target T4, Protein skinhead-1 (Caenorhabditis elegans, UniProt P34707).
T4 sequence (P34707 whole entry): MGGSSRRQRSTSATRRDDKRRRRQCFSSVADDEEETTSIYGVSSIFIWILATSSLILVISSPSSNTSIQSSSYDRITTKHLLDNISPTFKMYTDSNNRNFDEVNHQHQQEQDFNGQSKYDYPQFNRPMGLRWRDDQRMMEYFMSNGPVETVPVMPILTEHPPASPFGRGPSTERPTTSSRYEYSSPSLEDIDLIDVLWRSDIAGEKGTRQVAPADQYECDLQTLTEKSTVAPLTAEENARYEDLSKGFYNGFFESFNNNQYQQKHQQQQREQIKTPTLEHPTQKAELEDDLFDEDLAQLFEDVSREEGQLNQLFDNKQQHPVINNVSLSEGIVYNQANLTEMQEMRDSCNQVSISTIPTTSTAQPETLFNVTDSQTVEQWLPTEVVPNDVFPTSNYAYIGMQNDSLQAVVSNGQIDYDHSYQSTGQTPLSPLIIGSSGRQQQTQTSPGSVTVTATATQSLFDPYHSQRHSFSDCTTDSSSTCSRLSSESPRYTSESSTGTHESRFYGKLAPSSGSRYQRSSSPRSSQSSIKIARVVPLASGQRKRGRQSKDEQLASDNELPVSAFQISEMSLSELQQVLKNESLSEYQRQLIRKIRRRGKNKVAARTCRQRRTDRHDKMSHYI
Format: functional.

The source made the active and inactive calls. Cut-off read from the data, not from the text of the source, for most assays here: actives have a measured EC50 and inactives only a lower limit.
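Throughout, for AC50: cells exposed to compound for roughly 70 hours or longer before luminescence read.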

Sequence of Luciferin 4-monooxygenase (P08659 whole entry): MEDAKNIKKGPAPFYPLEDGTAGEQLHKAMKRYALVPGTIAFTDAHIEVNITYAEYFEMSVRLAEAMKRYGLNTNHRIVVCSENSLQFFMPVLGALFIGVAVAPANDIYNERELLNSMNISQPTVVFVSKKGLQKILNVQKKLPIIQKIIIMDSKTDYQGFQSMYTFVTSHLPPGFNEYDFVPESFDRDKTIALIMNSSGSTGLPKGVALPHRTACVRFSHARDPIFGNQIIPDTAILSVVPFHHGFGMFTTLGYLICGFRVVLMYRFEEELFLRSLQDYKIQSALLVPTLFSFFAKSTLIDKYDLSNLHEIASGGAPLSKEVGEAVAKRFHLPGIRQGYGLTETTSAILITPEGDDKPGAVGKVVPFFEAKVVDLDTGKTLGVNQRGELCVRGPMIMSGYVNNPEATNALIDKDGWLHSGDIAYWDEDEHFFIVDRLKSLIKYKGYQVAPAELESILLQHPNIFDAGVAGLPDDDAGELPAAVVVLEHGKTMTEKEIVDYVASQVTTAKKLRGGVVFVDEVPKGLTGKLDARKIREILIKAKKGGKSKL

For the molecule `Cc1cc(C)c2oc(C(=O)Nc3ccc(S(=O)(=O)Nc4nccc(C)n4)cc3)cc(=O)c2c1`, the EC50 (commonly the concentration that produces a half-maximal response) in assay [1] is on record as > 195 µM (not active). The same measure, in the same setting: under `COc1ccc(-n2c(C)c(C(C)=O)c(C(C)=O)c2C)cc1` stands > 195 µM (not active). `O=C(Cc1c[nH]c2ccccc12)N/N=C/c1ccccc1O`: the EC50 in [2] and in [3] was > 112 µM (not active) in each case.

Consider `O=C(NCC(=O)N1CCN(c2ccccc2O)CC1)c1ccc(Br)o1`, for which the concentration giving a half-maximal response (EC50) in assay [1] is given as > 195 µM (not active). With `Cc1ccc(-c2nc(NCc3ccco3)c3ccccc3n2)cc1`, in assay [4], the half-maximal inhibitory concentration (IC50) (usually the concentration that inhibits the measured activity by half) is reported as 7.69 µM (not active). Moreover, the AC50 – broadly, the concentration giving half of the maximal activity seen – in assay [5] was 9.72 µM (active). In the case of `COC(=O)C1(Cc2ccccc2)NC(c2ccccc2C)C2C(=O)N(c3ccc4c(c3)OCO4)C(=O)C21` (stereo not given), in [1], the half-maximal effective concentration (EC50) is > 195 µM (not active). Regarding `O=C1Nc2ccccc2C1=Nc1ccc(-c2nnc3n2CCCCC3)cc1`, the 50% effective concentration (EC50) in assay [2] and in [3] was > 112 µM (not active) each time.

With `COc1ccc(N(CC(=O)N/N=C/c2ccc(-c3ccc([N+](=O)[O-])cc3)o2)S(=O)(=O)c2ccc(C)cc2)cc1`, the half-maximal effective concentration (EC50) in assay [2] and in assay [3] was > 112 µM (not active) in each case. Consider `COc1ccc(Cn2nnnc2CN2CCc3ccccc3C2)cc1`, for which the EC50 in assay [1] is on record as > 195 µM (not active). Same read-out and setting: under `Cc1ccc(-c2nnc(SCC(=O)Nc3nccs3)n2N)cc1` stands > 195 µM (not active). `COc1cc(Cl)c(C)cc1NC(=O)CNC(C)c1ccccc1OC` (stereo not given): in [4], the IC50 is on record as > 50 µM (not active). With `CC1(C)c2ccccc2-n2c1cc1oc(=O)cc(O)c1c2=O`, the 50% effective concentration (EC50) (in assay [6]; on Streptokinase A; in the assay with Streptococcus) was > 150 µM (not active) in each case. In addition, the IC50 in [4] is on record as 1.02 µM (not active). Turning to `Cc1ccc(NC(=O)Cc2ccc(-n3cccc3)cc2)c(C)c1`, the concentration giving a half-maximal response (EC50) in assay [1] was > 195 µM (not active). On to `N#Cc1nc(COc2ccccc2)oc1N1CCN(c2cccc(Cl)c2)CC1`, for which, in assay [4], the IC50 was 34.3 µM (not active). For `CC(=O)NCc1cn2c(C)csc2n1`, the concentration giving a half-maximal response (EC50) in assay [2] and in assay [3] was > 112 µM (not active) throughout. For `O=C(CN1CCN(C(=O)c2ccccc2)CC1)Nc1ncc(Br)cc1Br`, in assay [1], the EC50 is given as > 195 µM (not active). With `CC(OC(=O)c1nsc(Cl)c1Cl)C(=O)NCc1ccc2c(c1)OCO2` (stereo not given), in [1], the EC50 was > 195 µM (not active). Consider `COc1ccc(CNC(=O)CCCn2nc([N+](=O)[O-])cc2C)cc1`, for which, in assay [4], the IC50 is < 0.4 µM (not active). Take `O=[N+]([O-])c1ccc(OC/C=C2\Oc3ccc([N+](=O)[O-])cc3C2N2CCOCC2)cc1` (stereo not given): the IC50 in assay [4] was 6.21 µM (not active); at Protein skinhead-1, > 100 µM (inactive). In the case of `Cc1ccc(C(=O)N/C(=C\c2cccc([N+](=O)[O-])c2)C(=O)NCc2ccncc2)cc1`, the EC50 in [2] was > 112 µM (not active); in assay [3], 38.4 µM (active).
